Experimental data: paper PMC9120017, “Inhibition mechanism of the chloride channel TMEM16A by the pore blocker 1PBC” (Nature Communications, 2022)
Like-named read-outs stand apart in the source and are kept apart here.

Molecular target: T1, mouse TMEM16B (Mus musculus, UniProt Q8CFW1)
T1 construct: expressed in transfected cells; host or cells: HEK293T
T1 sequence (Q8CFW1 1-1002): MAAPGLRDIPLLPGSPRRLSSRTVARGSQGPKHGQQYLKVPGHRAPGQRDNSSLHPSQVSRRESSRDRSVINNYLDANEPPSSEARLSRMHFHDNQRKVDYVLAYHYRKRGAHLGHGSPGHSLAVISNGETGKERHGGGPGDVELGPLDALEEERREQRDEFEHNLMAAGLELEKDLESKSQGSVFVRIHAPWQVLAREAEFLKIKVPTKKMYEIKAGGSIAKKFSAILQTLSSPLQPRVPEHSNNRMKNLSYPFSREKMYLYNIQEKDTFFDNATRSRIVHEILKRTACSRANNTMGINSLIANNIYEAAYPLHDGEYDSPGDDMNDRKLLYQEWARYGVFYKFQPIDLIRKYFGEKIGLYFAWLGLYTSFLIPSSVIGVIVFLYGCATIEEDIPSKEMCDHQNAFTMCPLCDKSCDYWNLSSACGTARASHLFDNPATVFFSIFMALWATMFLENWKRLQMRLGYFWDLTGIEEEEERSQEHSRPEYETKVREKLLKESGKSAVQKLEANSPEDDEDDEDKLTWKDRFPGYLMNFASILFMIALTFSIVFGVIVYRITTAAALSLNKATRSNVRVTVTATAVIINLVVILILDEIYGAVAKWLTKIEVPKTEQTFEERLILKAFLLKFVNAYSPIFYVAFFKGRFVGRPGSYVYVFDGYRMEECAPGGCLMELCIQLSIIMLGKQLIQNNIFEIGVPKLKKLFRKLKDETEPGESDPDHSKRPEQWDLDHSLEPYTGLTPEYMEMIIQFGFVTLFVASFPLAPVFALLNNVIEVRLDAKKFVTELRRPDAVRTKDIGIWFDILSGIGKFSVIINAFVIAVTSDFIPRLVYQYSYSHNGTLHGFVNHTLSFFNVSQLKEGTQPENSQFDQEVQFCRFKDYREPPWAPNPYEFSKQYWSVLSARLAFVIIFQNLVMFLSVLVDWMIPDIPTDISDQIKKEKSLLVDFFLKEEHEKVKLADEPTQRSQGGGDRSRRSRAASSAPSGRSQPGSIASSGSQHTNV
Assay: Inside-out patch recording of 1PBC block, TMEM16B
Format: cell-based
Conditions: 15 µM Ca2+; for remaining activity at 3 µM: 3 µM 1PBC; for remaining activity at 3 µM / remaining activity at 10 µM / remaining activity at 30 µM / remaining activity at 100 µM: read-out: I/Imax; for remaining activity at 10 µM: 10 µM 1PBC; for remaining activity at 30 µM: 30 µM 1PBC; for remaining activity at 100 µM: 100 µM 1PBC
Experimental: HEK293T cells (ATCC CRL-1573) were maintained in Dulbecco’s modified Eagle’s medium (DMEM; Sigma-Aldrich) supplemented with 10 U ml^−1 penicillin, 0.1 mg ml^−1 streptomycin (Sigma-Aldrich), 2 mM L-glutamine (Sigma-Aldrich), and 10% FBS (Sigma-Aldrich) in a humidified atmosphere containing 5% CO2 at 37 °C. HEK293S GnTI^− cells (ATCC CRL-3022) were maintained in HyClone HyCell TransFx-H medium (GE Healthcare) supplemented with 10 U ml^−1 penicillin, 0.1 mg ml^−1 streptomycin, 4 mM L-glutamine, 0.15% poloxamer 188 (Sigma-Aldrich), and 1% FBS in an atmosphere containing 5% CO2 at 185 rpm at 37 °C. The ac splice variant of mouse TMEM16A (UniProt ID: Q8BHY3), mouse TMEM16B (UniProt ID: Q8CFW1), or mouse TMEM16F (UniProt ID: Q6P9J9) bearing a 3C cleavage site, a Venus YFP, a Myc tag, and a Streptavidin-binding peptide (SBP) downstream of the open reading frame in a modified pcDNA3.1 vector (Invitrogen) were used as described previously[21],[31]. Mutations were introduced using a modified QuikChange method[58] and were verified by sequencing.
HEK293T cells were transfected with 3–4 μg DNA per 6 cm Petri dish using the calcium phosphate co-precipitation method and were used within 24–96 h after transfection. Recordings were performed on inside-out patches excised from HEK293T cells expressing the construct of interest. Patch pipettes were pulled from borosilicate glass capillaries (O.D. 1.5 mm, I.D. 0.86 mm, Sutter Instrument) and were fire-polished with a microforge (Narishige) before use. Pipette resistance was typically 3–8 MΩ when filled with the recording solutions detailed below. Seal resistance was typically 4 GΩ or higher. Voltage-clamp recordings were made using Axopatch 200B, Digidata 1550, and Clampex 10.7 (Molecular Devices). Analog signals were filtered with the in-built 4-pole Bessel filter at 10 kHz and were digitized at 20 kHz. Solution exchange was achieved using a gravity-fed system through a theta glass pipette mounted on an ultra-fast piezo-driven stepper (Siskiyou). […] All recordings were performed at 20 °C.
A symmetrical ionic condition was used throughout. Stock solution with Ca^2+-EGTA contained 150 mM NaCl, 5.99 mM Ca(OH)2, 5 mM EGTA, and 10 mM HEPES at pH 7.40. Stock solution with EGTA contained 150 mM NaCl, 5 mM EGTA, and 10 mM HEPES at pH 7.40. Free Ca^2+ concentrations were adjusted by mixing the stock solutions at the required ratios calculated using the WEBMAXC program (http://web.stanford.edu/~cpatton/webmaxcS.htm). Patch pipettes were filled with the stock solution with Ca^2+-EGTA, which has a free Ca^2+ concentration of 1 mM. 1PBC (ChemBridge) stock was reconstituted in anhydrous DMSO (Sigma-Aldrich) at 100 mM and stored at −20 °C. Working solutions with 1PBC were prepared by serial dilution. Unless otherwise stated, experiments were performed at a saturating Ca^2+ concentration as shown in Supplementary Table 1 and the primary data were corrected for current rundown as described previously[21],[25].
Concentration-response relations, obtained from the ratio of the I-V plots before and after the application of the blocker, were fitted to the Hill equation,1 I/Imax=1/1+IC50/[blocker]^h where I/Imax is the normalized current responses, IC50 defines the concentration at which inhibition is at its half-maximum, and h is the Hill coefficient.

remaining activity at 3 µM (+80 mV): 55.6%
remaining activity at 3 µM (-80 mV): 89.9%
remaining activity at 10 µM (+80 mV): 31%
remaining activity at 10 µM (-80 mV): 70.1%
Block of the channel TMEM16B: blocks
remaining activity at 30 µM (+80 mV): 16.8%
remaining activity at 30 µM (-80 mV): 43.9%
remaining activity at 100 µM (+80 mV): 7.99%
remaining activity at 100 µM (-80 mV): 20.5%
SMILES: N#Cc1c(C(F)(F)F)cc(O)n2c1nc1ccccc12 [1PBC]
